ChEMBL document CHEMBL1150892, “Kalkipyrone, a toxic gamma-pyrone from an assemblage of the marine cyanobacteria Lyngbya majuscula and Tolypothrix sp” (J Nat Prod, 1998)
Converted amounts (≈) assume the structure as drawn.

Assays:
[1] = Ichthyotoxicity in gold fish after 1 hr; type: organism-based; conditions: carassius auratus, in vivo; read-out: LD50
[2] = Toxicity in Artemia salina; type: organism-based; conditions: in vivo, read-out: LD50 (the source's name)

For COc1oc(C/C=C(\C)C/C=C/C(C)=C/[C@@H](C)O)c(C)c(=O)c1C [KALKIPYRONE], the LC50 at 1 h [1] was 2 µg/mL (≈ 6.02 µM) and the LC50 [2] was 1 µg/mL (≈ 3.01 µM).
